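Five compound concentrations were applied to cells in 96-well plates for 48 hours; endpoints were derived by simple linear interpolation of the resulting dose-response curve. GI50 = concentration required for 50% inhibition of growth.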 The source made the active and inactive calls. Rule as the data show it: active = GI50 up to about 1.1 µM and inactive = higher.
Columns and labels:
Test in all cases: NCI tumour cell line growth inhibition, 48 h
[1] = test system: SW-620
[2] = test system: KM12
[3] = test system: NCI-H460
[4] = test system: MCF7
[5] = test system: Hs-578T
[6] = test system: NCI-H522
[7] = test system: A498
[8] = test system: UACC-257
[9] = test system: ACHN
[10] = test system: SK-MEL-28
[11] = test system: LOX IMVI
[12] = test system: NCI/ADR-RES
[13] = test system: HT-29
[14] = test system: OVCAR-5
[15] = test system: MDA-MB-435
[16] = test system: DU-145
[17] = test system: MDA-N
[18] = test system: OVCAR-3
[19] = test system: SNB-75
[20] = test system: K562
[21] = test system: RPMI-8226
[22] = test system: 786-0
[23] = test system: SNB-19
[24] = test system: UO-31
[25] = test system: TK-10
[26] = test system: SF-539
[27] = test system: OVCAR-8
[28] = test system: SF-295
[29] = test system: SR
[30] = test system: M14
[31] = test system: SN12C
[32] = test system: EKVX
[33] = test system: SK-MEL-5
[34] = test system: HOP-62
[35] = test system: T47D
[36] = test system: PC-3
[37] = test system: SF-268
[38] = test system: CCRF-CEM
[39] = test system: SK-OV-3
[40] = test system: HL-60
[41] = test system: MOLT-4
[42] = test system: RXF 393
[43] = test system: A549
[44] = test system: MDA-MB-231
[45] = test system: Malme-3M
[46] = test system: COLO 205
[47] = test system: NCI-H226
[48] = test system: HCT-116
[49] = test system: UACC-62
[50] = test system: IGROV-1
[51] = test system: HCC 2998
[52] = test system: NCI-H23
[53] = test system: OVCAR-4
[54] = test system: HCT-15
[55] = test system: U-251
[56] = test system: HOP-92
[57] = test system: SK-MEL-2
[58] = test system: CAKI-1

Measured: GI50

COC(=O)Cc1cccc2c1CCC2=O
> 100 µM: [54]
inactive: [1] > 100 µM | [2] > 100 µM | [3] > 100 µM | [4] > 100 µM | [5] > 100 µM | [6] > 100 µM | [7] > 100 µM | [8] > 100 µM | [9] > 100 µM | [10] > 100 µM | [11] > 100 µM | [12] > 100 µM | [13] > 100 µM | [14] > 100 µM | [15] > 100 µM | [16] > 100 µM | [17] > 100 µM | [18] > 100 µM | [19] > 100 µM | [20] > 100 µM | [21] > 100 µM | [22] > 100 µM | [23] > 100 µM | [24] > 100 µM | [25] > 100 µM | [26] > 100 µM | [27] > 100 µM | [28] > 100 µM | [29] > 100 µM | [30] > 100 µM | [31] > 100 µM | [32] > 100 µM | [33] > 100 µM | [34] > 100 µM | [35] > 100 µM | [36] > 100 µM | [37] > 100 µM | [38] > 100 µM | [39] > 100 µM | [40] > 100 µM | [41] > 100 µM | [42] > 100 µM | [43] > 100 µM | [44] > 100 µM | [45] > 100 µM | [46] > 100 µM | [47] > 100 µM | [48] > 100 µM | [49] > 100 µM | [50] > 100 µM | [51] > 100 µM | [52] > 100 µM | [53] > 100 µM | [55] > 100 µM | [56] > 100 µM

O=[N+]([O-])c1ccc(N/N=C/CC(O)(C(F)(F)F)C(F)(F)F)c([N+](=O)[O-])c1
inactive: [1] 7.33 µM | [2] 4.82 µM | [3] 2.97 µM | [4] 3.78 µM | [5] 2.74 µM | [6] 3.21 µM | [7] 3.78 µM | [8] 3.65 µM | [9] 3.52 µM | [10] 7.78 µM | [11] 5.55 µM | [12] 3.68 µM | [13] 4.38 µM | [15] 4.13 µM | [16] 3.1 µM | [17] 5.25 µM | [18] 2.8 µM | [19] > 10 µM | [20] 3.55 µM | [21] 2.76 µM | [22] 5.04 µM | [23] 5.04 µM | [24] 3.06 µM | [25] 5.79 µM | [26] 2.3 µM | [27] 4.23 µM | [28] 3.58 µM | [29] 5.06 µM | [30] > 10 µM | [57] 2.21 µM | [31] 3.41 µM | [32] 5.35 µM | [33] 4.55 µM | [34] 4.17 µM | [35] 3.21 µM | [36] 3.24 µM | [37] 4.26 µM | [38] 3.99 µM | [39] 4.8 µM | [40] 4.07 µM | [41] 3.78 µM | [42] 5.35 µM | [43] 4.69 µM | [58] 3.15 µM | [44] > 10 µM | [45] 4.97 µM | [46] 3.67 µM | [47] 3.72 µM | [48] 3.03 µM | [49] 4.06 µM | [50] 4.47 µM | [51] 5.32 µM | [52] 2.77 µM | [53] 4.99 µM | [55] 3.48 µM | [56] 2.17 µM
3.01 µM: [54]
